Laboratory results published in patent US20110143948A1, “MOLECULAR SIGNATURES AND BIOMARKERS ASSOCIATED WITH MELANOMA AND METHODS OF USE THEREOF” (priority 2008, published 2011).

Tested on: ncRNAs (SEQ ID NO 28-89)
Assay: ncRNA arrays of melanocytes, keratinocytes, normal skin, melanoma cell lines and patient samples
Parameters: species or system human
Conditions: for ncRNA array expression, patient 2: melanoma patient 2 sample compared to normal skin; for ncRNA array expression, patient 3: melanoma patient 3 sample compared to normal skin; for ncRNA array expression, patient 4: melanoma patient 4 sample compared to normal skin; for ncRNA array expression, patient 5: melanoma patient 5 sample compared to normal skin; for ncRNA array expression, patient 6: melanoma patient 6 sample compared to normal skin; for ncRNA array expression, patient 7: melanoma patient 7 sample compared to normal skin; for ncRNA array expression, patient 8: melanoma patient 8 sample compared to normal skin; for ncRNA array expression, patient 9: melanoma patient 9 sample compared to normal skin; for ncRNA array expression, patient 10: melanoma patient 10 sample compared to normal skin; for ncRNA array expression, patient 19: melanoma patient 19 sample compared to normal skin; for ncRNA array expression, patient 20: melanoma patient 20 sample compared to normal skin; for ncRNA array expression, patient 21: melanoma patient 21 sample compared to normal skin; for ncRNA array expression, patient 22: melanoma patient 22 sample compared to normal skin; for ncRNA array expression, patient 23: melanoma patient 23 sample compared to normal skin; for ncRNA array expression, patient 24: melanoma patient 24 sample compared to normal skin; for ncRNA array expression, patient 25: melanoma patient 25 sample compared to normal skin; for ncRNA array expression, patient 26: melanoma patient 26 sample compared to normal skin; for ncRNA array expression, patient 27: melanoma patient 27 sample compared to normal skin; for ncRNA array expression, patient 28: melanoma patient 28 sample compared to normal skin; for ncRNA array expression, patient 29: melanoma patient 29 sample compared to normal skin; for ncRNA array expression, patient 30: melanoma patient 30 sample compared to normal skin
How it was run: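 Total RNA from melanocytes, keratinocytes, normal human skin, melanoma cell lines and melanoma patient samples was profiled on an array of >10,000 putative (>200 nt) human and mouse ncRNAs plus RefSeq mRNA probes. Expression was compared with melanocytes or normal skin, keratinocyte signatures were subtracted, and hits were validated by qRT-PCR and Northern blot.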

| Substance | ncRNA array expression, patient 2 | ncRNA array expression, patient 3 | ncRNA array expression, patient 4 | ncRNA array expression, patient 5 | ncRNA array expression, patient 6 | ncRNA array expression, patient 7 | ncRNA array expression, patient 8 | ncRNA array expression, patient 9 | ncRNA array expression, patient 10 | ncRNA array expression, patient 19 | ncRNA array expression, patient 20 | ncRNA array expression, patient 21 | ncRNA array expression, patient 22 | ncRNA array expression, patient 23 | ncRNA array expression, patient 24 | ncRNA array expression, patient 25 | ncRNA array expression, patient 26 | ncRNA array expression, patient 27 | ncRNA array expression, patient 28 | ncRNA array expression, patient 29 | also measured |
| --- | --- | --- | --- | --- | --- | --- | --- | --- | --- | --- | --- | --- | --- | --- | --- | --- | --- | --- | --- | --- | --- |
| SEQ ID NO 49 (CGATGGCTTGTCATTGTCCCCTGTCCTGGAACAATAAAGCAAGTGCCTTGTGGTCTCACT; listed as DNA, chemistry not given here; listed as Homo sapiens) | −3.131 | −1.901 | −2.3226 | −1.9036 | 0.7986 | −1.477 | −1.974 | −2.214 | −4.429 | −2.094 | −2.123 | −2.207 | −2.118 | −1.787 | −1.642 | −2.472 | −3.037 | −2.447 | −2.621 | −2.39 | ncRNA array expression, patient 30: −0.9259 |
| SEQ ID NO 50 (GTTATTATAACCAATGCAGACTTTAAAATCCCACCTGGACATCGGGTGAGAGGAGGAGGG; listed as DNA, chemistry not given here; listed as Homo sapiens) | −2.415 | −1.962 | −2.102 | −1.782 | −1.159 | −1.978 | −1.68 | −2.03 | −1.537 | −0.5347 | −1.776 | −1.854 | −1.427 | −0.1575 | −1.434 | −1.804 | −1.952 | −1.707 | −1.738 | −2.317 | ncRNA array expression, patient 30: −0.3312 |
| SEQ ID NO 51 (ATGTATTTTAGGTAATAAGATTTTTATCAATTGTGTCTTTTTCTTTCTTTGCTTTCTATA; listed as DNA, chemistry not given here; listed as Homo sapiens) | 0.8922 | 2.683 | 2.264 | 1.042 | 1.115 | 1.14 | 2.048 | 0.7789 | 0.8572 | 0.7228 | 1.113 | 1.298 | 0.5543 | 0.1918 | 1.761 | 2.552 | 1.145 | 1.166 | 0.879 | 0.7193 | ncRNA array expression, patient 30: −0.4325 |
